Series [1] is described as follows: Thermodynamic aqueous solubility by HPLC (filtration method). It counts as physicochemical. As to conditions: Table 8, listed as Free base. On the procedure:
The aqueous thermodynamic solubility of selected salt forms was measured using the filtration method as described in Example 10.
The suspension was equilibrated at 25° C. for 24 hours then the pH was measured. The suspension was then filtered through a glass fiber C filter into a 96 well plate. The filtrate was then diluted by a factor of 101. Quantitation was by HPLC with reference to a standard solution of approximately 0.1 mg/mL in DMSO. Different volumes of the standard, diluted and undiluted sample solutions were injected. The solubility was calculated using the peak areas determined by integration of the peak found at the same retention time as the principal peak in the standard injection.

Series [2] is described as follows: Stability on storage at 40° C./75% RH (XRPD, HPLC purity). It counts as physicochemical. As to conditions: 6 months of storage at 40° C./75% RH. The source says: […] No significant thermal events were seen before degradation began for both the phosphate salt and the 1-hydroxy-2-naphthoate salts.
A short description of series [3]: Pharmacokinetics in rat after IV and PO administration. Type of series: in vivo, male Sprague-Dawley rats. As to conditions: mean ± SD. As for the experimental part:
Compound I was used in the rat investigation. An intravenous (IV) and oral (PO) dose of Compound I (1.0 and 10 mg/kg, respectively) was prepared. The IV dose was solubilized in 50% PEG300 to yield a final concentration of 1.0 mg/mL with a final pH of 5.13. The PO dose was suspended in 0.5% methylcellulose at a concentration of 2.0 mg/mL with a final pH of 2.70.
(§1) A total of six male Sprague-Dawley rats (n=3/dosing group) from Charles River Laboratories (Hollister, Calif.), three male beagle dogs from Marshall BioResources (North Rose, N.Y.) and three male rhesus monkeys were utilized. […]
(§2) All animals were dosed based on individual weights with a PO gavage volume of 5.0 mL/kg and an IV bolus dose volume of 1.0 mL/kg. […] At collection times, urine volume and water consumption was recorded. […]
(§3) Plasma and urine samples were analyzed for Compound I concentration using a liquid chromatography tandem mass spectrometry (LC/MS/MS). […] The peak areas of the m/z 411→250 product ion (Compound I) were measured against those of the m/z 470→342 product ion (N-(2-(5-chloropyridin-2-ylcarbaomoyl)-4-methoxyphenyl)-4-(N,N-dimethylcarbamimidoyl)-2-fluorobenzamide) in positive ion mode. […]
(§4) Sample Compound I concentrations below the lower limit of quantitation (LLQ) were reported as <0.500 ng/mL. […]

Series [4] is described as follows: Pharmacokinetics in dog after IV and PO administration. It counts as in vivo, male beagle dogs. As to conditions: PO 5 mg/kg, dose-normalized AUC(0-inf), mean ± SD. As for the experimental part: (§5) For the dog and monkey study, Compound I was also used. An IV and PO dose of Compound I (1.0 and 5.0 mg/kg, respectively) was prepared. The IV dose was formulated similarly to that used in the rat study (50% PEG300 in water). The PO dose was suspended in 0.5% methylcellulose at a concentration of 1.0 mg/mL with a final pH of approximately 3.50.
as §1, §2, §3, §4

Series [5] can be described thus: Pharmacokinetics in monkey after IV and PO administration. Type of series: in vivo, male rhesus monkeys. The conditions noted are these: PO 5 mg/kg, dose-normalized AUC(0-inf), mean ± SD. On the procedure: as §5, §1, §2, §3, §4

A word on the Aqueous solubility: it is the dissolved amount per volume that the medium holds. In the case of `O=C(NCc1cn(-c2ccc(-n3ccccc3=O)cc2)cn1)c1ccc(Cl)s1` [Compound I, 5-chloro-N-((1-(4-(2-oxopyridin-1(2H)-yl)phenyl)-1H-imidazol-4-yl)methyl)thiophene-2-carboxamide], in series [1] (filtration method, water, 25° C., 24 hours), the “Aqueous solubility” value was found to be 0.8 µg/mL. Further, the pH in series [1] (pH of the solubility suspension) amounted to 7.8. For the same compound, in series [2], the physical stability result is given as “physically stable”. Also, the “Dose excreted unchanged in urine” value in series [3] (IV 1 mg/kg) is 0.248 ± 0.019%. Further, the AUC/D was found to be 6859 ± 1249 kg·h/mL in series [3] (PO 10 mg/kg, dose-normalized AUC(0-inf)); 1095 ± 295 kg·h/mL in series [4]; 8430 ± 3449 kg·h/mL in series [5].

The record behind these values is patent publication US8530501B2, “Salts and crystalline forms of a factor Xa inhibitor” (Millennium Pharmaceuticals, Inc., priority 2009, dated 2013).
